PMC4902181 (Journal of medicinal chemistry, 2015)
“Also recorded” adds a separate entry of the source.

Assays:
[1] = Human liver microsomal stability; assay type: in vitro ADME; conditions: compound 10 µM, 30 min incubation
[2] = Rat liver microsomal stability; assay type: in vitro ADME; conditions: compound 10 µM, 30 min incubation
[3] = 30 min incubation; cited from earlier work
lipofuscin bisretinoids = conditions: chronic oral administration, Abca4−/− mouse; cited from earlier work
serum RBP4 [4] = conditions: chronic oral administration, Abca4−/− mouse; cited from earlier work
hERG channel = hERG channel (Homo sapiens, UniProt Q12809); experiment: Patch-Xpress patch-clamp hERG assay; assay type: cell-based
MDCK-MDR1 = experiment: MDR1-MDCK permeability assay; assay type: in vitro ADME
[5] = test system: panel of fifty-five GPCRs, enzymes, ion channels, and transporters; experiment: Standard off-target screening panel; conditions: data not shown
human PXR = biological target: T1, human PXR (Homo sapiens, UniProt O75469); experiment: Human PXR activation; conditions: data not shown
T1 sequence (O75469 1-434): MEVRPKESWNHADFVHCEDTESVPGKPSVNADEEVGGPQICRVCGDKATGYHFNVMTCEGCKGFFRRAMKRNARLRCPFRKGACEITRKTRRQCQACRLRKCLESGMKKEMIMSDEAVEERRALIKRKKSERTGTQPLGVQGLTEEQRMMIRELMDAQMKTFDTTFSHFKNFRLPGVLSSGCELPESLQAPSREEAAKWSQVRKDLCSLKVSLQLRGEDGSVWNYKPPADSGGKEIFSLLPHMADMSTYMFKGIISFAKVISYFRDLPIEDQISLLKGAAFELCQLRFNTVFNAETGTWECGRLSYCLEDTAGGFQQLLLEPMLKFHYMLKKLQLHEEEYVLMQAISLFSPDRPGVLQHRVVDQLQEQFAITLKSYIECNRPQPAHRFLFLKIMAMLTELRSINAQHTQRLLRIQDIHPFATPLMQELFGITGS

[6] = Single dose IV and PO PK in rats; assay type: in vivo; conditions: Sprague-Dawley, rat, plasma, 2 mg/kg
RBP4 = RBP4 (Homo sapiens, UniProt P02753); experiment: RBP4 scintillation proximity assay; assay type: binding
RBP4-TTR interaction = RBP4-TTR interaction (Homo sapiens, UniProt P02753); experiment: HTRF retinol-dependent RBP4-TTR interaction assay; assay type: biochemical; conditions: read-out: RBP4 HTRF IC50; 1 µM retinol
CYP2C9 = CYP2C9 (Homo sapiens, UniProt P11712); conditions: read-out: CYP2C9 inhibitory activity IC50; cited from earlier work
serum RBP4 [7] = conditions: acute and chronic rodent oral dosing; cited from earlier work

Sequence of hERG channel (Q12809 whole entry): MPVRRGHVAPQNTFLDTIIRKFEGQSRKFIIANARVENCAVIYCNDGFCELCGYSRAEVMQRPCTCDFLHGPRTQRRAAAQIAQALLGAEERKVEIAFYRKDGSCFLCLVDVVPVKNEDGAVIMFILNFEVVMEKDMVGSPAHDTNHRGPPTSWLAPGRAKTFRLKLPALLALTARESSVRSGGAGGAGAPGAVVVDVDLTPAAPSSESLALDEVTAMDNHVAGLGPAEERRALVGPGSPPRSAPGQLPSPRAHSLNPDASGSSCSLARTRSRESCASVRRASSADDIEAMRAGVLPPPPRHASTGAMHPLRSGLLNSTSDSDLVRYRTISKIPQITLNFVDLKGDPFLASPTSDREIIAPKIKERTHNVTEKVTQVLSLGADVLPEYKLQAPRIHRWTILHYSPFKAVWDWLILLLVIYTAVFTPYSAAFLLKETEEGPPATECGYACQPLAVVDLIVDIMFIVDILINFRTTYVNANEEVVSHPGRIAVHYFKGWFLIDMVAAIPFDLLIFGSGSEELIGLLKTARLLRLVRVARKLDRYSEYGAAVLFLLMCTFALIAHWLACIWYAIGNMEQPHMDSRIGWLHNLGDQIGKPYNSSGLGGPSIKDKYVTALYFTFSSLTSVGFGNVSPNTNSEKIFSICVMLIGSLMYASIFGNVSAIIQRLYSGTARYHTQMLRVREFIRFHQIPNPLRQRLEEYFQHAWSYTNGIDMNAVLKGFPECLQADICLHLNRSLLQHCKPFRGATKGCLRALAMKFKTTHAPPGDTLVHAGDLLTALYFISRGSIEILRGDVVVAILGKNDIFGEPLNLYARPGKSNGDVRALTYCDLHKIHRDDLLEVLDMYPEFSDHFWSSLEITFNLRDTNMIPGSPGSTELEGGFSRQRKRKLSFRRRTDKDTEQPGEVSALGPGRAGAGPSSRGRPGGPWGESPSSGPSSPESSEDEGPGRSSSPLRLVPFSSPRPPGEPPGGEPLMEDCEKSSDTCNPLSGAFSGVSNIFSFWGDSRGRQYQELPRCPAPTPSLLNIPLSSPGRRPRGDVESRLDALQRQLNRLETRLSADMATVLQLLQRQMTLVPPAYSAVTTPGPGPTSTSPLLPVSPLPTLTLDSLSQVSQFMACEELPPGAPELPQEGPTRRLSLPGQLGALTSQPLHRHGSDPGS
Sequence of CYP2C9 (P11712 whole entry): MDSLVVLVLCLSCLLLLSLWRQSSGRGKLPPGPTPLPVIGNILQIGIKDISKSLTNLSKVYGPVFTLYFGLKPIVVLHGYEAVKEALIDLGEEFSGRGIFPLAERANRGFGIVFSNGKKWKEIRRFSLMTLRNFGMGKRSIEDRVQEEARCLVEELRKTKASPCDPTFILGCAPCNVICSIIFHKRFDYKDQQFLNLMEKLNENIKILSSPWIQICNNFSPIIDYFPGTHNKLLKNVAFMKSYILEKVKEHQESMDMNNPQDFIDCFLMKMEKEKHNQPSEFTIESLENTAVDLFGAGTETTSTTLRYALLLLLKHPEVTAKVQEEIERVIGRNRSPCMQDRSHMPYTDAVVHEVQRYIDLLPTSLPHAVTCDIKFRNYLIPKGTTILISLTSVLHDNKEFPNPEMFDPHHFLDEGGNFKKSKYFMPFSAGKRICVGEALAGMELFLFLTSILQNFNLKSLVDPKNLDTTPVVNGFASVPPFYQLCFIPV

| microsomal stability (% remaining) HLM [1] | microsomal stability (% remaining) RLM [2] | Structure (SMILES) | other results |
| --- | --- | --- | --- |
| 3 % remaining | 85 % remaining | O=C(O)c1ccccc1NC(=O)N1CCC(c2ccccc2C(F)(F)F)CC1 [Compound 3, A1120, reference compound] | HLM stability (% remaining) [3]: ~ 3 % remaining; reduction of accumulation of lipofuscin bisretinoids (lipofuscin bisretinoids): approximately 50%; reduction in serum RBP4 (serum RBP4 [4]): 75% |
| 68 % remaining | 96 % remaining | Cc1cc(C(=O)O)nc(N2CCC(c3ccccc3C(F)(F)F)CC2)n1 [Compound 10, 6-Methyl-2-(4-(2-(trifluoromethyl)phenyl)piperidin-1-yl)-pyrimidine-4-carboxylic Acid] |  |

Second part, the compound before the results:

| Structure (SMILES) | microsomal stability (% remaining) HLM [1] | microsomal stability (% remaining) RLM [2] | other results |
| --- | --- | --- | --- |
| COC(=O)c1cc(C)nc(N2C[C@H]3C[C@@H](c4ccccc4C(F)(F)F)C[C@H]3C2)n1 [Compound 28, Methyl 6-Methyl-2-((3aR,5r,6aS)-5-(2-(trifluoromethyl)phenyl)-hexahydrocyclopenta[c]pyrrol-2(1H)-yl)pyrimidine-4-carboxylate] | 0.2 % remaining | 9.8 % remaining |  |
| COC(=O)c1cc(C)nc(N2CCN(c3ccccc3C(F)(F)F)CC2)n1 [Compound 13, methyl 6-methyl-2-(4-(2-(trifluoromethyl)phenyl)piperazin-1-yl)-pyrimidine-4-carboxylate] | 0.0 % remaining | 0.0 % remaining |  |
| Cc1cc(C(=O)O)nc(N2C[C@H]3C[C@@H](c4ccccc4C(F)(F)F)C[C@H]3C2)n1 [Compound 33, 6-Methyl-2-((3aR,5r,6aS)-5-(2-(trifluoromethyl)phenyl)-hexahydrocyclopenta[c]pyrrol-2(1H)-yl)pyrimidine-4-carboxylic Acid] | 94 % remaining | 93 % remaining | off-target activity at the hERG channel (hERG channel): no significant off-target activity; MDCK-MDR1 permeability class (MDCK-MDR1): highly permeable; also recorded: high permeability; off-target activity in screening panel [5]: no significant off-target activity; human PXR activation (human PXR): did not induce human PXR activation; clearance [6]: 5.06 mL/h/kg |
| O=C(O)c1cncc(N2C[C@H]3C[C@@H](c4ccccc4C(F)(F)F)C[C@H]3C2)c1 [Compound 51, 5-((3aR,5r,6aS)-5-(2-(Trifluoromethyl)phenyl)hexahydrocyclopenta[c]pyrrol-2(1H)-yl)nicotinic Acid] |  |  | RBP4 activity (RBP4): devoid of RBP4 activity |
| Cc1cc(C(=O)O)nc(N2C[C@H]3C[C@H](c4ccccc4C(F)(F)F)C[C@H]3C2)n1 [Compound 40, 6-Methyl-2-((3aR,5s,6aS)-5-(2-(trifluoromethyl)phenyl)-hexahydrocyclopenta[c]pyrrol-2(1H)-yl)pyrimidine-4-carboxylic Acid] |  |  | RBP4 activity (RBP4): devoid of RBP4 activity |
| Cc1cc(C(=O)O)nc(N2CCN(c3ccccc3C(F)(F)F)CC2)n1 [Compound 14, 6-Methyl-2-(4-(2-(trifluoromethyl)phenyl)piperazin-1-yl)-pyrimidine-4-carboxylic Acid] | 18 % remaining | 63 % remaining |  |
| Cc1cc(C(=O)O)nc(N2C[C@@H]3CN(c4ccccc4C(F)(F)F)C[C@@H]3C2)n1 [Compound 18, 6-Methyl-2-((3aR,6aS)-5-(2-(trifluoromethyl)phenyl)hexahydropyrrolo[3,4-c]pyrrol-2(1H)-yl)pyrimidine-4-carboxylic Acid] | 80 % remaining | 76 % remaining |  |
| O=C(O)c1ccccc1NC(=O)N1C[C@H]2C[C@@H](c3ccccc3C(F)(F)F)C[C@H]2C1 [Compound 4, 2-((3aR,5r,6aS)-5-(2-(trifluoromethyl)phenyl)octahydrocyclopenta[c]pyrrole-2-carboxamido)benzoic acid] | 100 % remaining | 75 % remaining | IC50 (RBP4; read-out: RBP4 SPA IC50, fixed 10 nM 3H-retinol): 72.7 nM; IC50 (RBP4-TTR interaction): 294 nM; HLM stability (% remaining) [3]: 100 % remaining; IC50 (CYP2C9): 340 nM; lowering of serum RBP4 levels (serum RBP4 [7]): > 85% |
